From ChEMBL document CHEMBL1201862, “PubChem BioAssay data set” (2004) come the findings set out here.

The structures appear in SMILES notation. Active and inactive are the calls of the source. A value given as a limit tells only on which side of the number the result lay.

A short description of assay [1]: Luminescence-based cell-based high throughput dose response assay to identify activators of the DAF-12 from the parasite S. stercoralis (ssDAF-12). Type of assay: functional.
Assay [2] in a line: Fluorescence-based cell-based high throughput dose response assay for inhibitors of the interaction of nucleotide-binding oligomerization domain containing 2 (NOD2) and the receptor-interacting serine-threonine kinase 2 (RIPK2). The following applies: Homo sapiens. Type of assay: functional, Homo sapiens.
Assay [3] addresses T1, Microphthalmia-associated transcription factor (Homo sapiens, UniProt O75030).
T1 sequence (O75030 whole entry): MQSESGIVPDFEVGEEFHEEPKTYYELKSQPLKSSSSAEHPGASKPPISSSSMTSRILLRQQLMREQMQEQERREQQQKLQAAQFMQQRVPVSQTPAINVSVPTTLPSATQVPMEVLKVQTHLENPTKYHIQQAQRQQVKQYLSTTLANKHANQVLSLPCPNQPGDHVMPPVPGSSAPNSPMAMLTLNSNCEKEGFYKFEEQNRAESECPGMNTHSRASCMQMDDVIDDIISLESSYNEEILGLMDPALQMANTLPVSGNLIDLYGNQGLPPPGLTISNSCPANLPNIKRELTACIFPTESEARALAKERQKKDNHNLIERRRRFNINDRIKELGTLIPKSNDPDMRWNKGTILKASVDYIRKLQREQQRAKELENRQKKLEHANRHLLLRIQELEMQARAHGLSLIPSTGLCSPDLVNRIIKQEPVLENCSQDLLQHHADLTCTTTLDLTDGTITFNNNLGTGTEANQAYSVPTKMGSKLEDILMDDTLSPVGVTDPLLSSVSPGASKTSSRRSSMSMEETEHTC
The assay is described as follows: TRPM1 promoter luciferase signal decrease, dose response, MITF inhibitor project, cell-based, SK-MEL-5, cherry-picked, set 3 (AID 493073).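 Further: SK-MEL-5 melanoma cells with luciferase driven by the MITF target TRPM1 promoter.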 The class given is functional.

The target of assay [4] is Neurotensin receptor type 1 (Homo sapiens, UniProt P30989). The class given is functional.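 Further: Image-based confirmatory dose-response assay measuring agonist activity at NTR1; NTR1-expressing U2OS osteosarcoma cells imaged for beta-arrestin GFP spot formation; agonist potency where compounds increase beta-arrestin recruitment.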
Assay [5] is described as follows: P. falciparum Dd2 growth inhibitors, dose response, SYBR Green, dry powder samples, set 9 (AID 1159568). Type of assay: functional, cell-based.
Assay [6] concerns the target T2, Corticotropin-releasing factor receptor 2/Corticotropin-releasing factor-binding protein (Homo sapiens, UniProt P24387+Q13324).
T2 sequence (Q13324 whole entry): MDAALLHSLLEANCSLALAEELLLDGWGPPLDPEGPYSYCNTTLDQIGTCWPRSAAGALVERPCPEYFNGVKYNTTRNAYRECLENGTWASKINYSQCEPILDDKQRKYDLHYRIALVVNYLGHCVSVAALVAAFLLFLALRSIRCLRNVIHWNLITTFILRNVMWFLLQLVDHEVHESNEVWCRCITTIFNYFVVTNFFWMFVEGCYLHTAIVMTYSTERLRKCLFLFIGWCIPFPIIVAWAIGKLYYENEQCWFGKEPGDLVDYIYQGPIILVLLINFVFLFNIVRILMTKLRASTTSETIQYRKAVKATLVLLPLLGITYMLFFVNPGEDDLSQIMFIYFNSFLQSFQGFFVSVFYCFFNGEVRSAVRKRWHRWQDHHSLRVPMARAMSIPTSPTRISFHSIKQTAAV
T2 sequence (P24387 whole entry): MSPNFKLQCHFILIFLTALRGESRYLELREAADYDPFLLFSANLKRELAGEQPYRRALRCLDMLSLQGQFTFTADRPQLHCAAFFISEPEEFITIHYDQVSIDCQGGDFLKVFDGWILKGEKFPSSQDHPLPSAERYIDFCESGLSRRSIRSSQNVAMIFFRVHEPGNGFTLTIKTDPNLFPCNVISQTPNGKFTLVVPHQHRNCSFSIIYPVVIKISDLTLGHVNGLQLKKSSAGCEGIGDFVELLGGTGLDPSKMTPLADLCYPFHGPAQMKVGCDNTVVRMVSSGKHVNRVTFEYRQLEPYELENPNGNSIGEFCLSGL
The assay is described as follows: activators of CRF receptor 2 with binding protein – uHTS hits, confirmation (AID 602473). The class given is functional. As to conditions: read-out: EC50_Mean.

In assay [7] the test system is Vero. Briefly: host cell cytotoxicity of antiviral hits, dose response, cytotoxicity control for West Nile virus antiviral project, secondary assay (AID 1650). The following applies: Chlorocebus sabaeus. Type of assay: functional.
Assay [8] concerns the target T2, Corticotropin-releasing factor receptor 2/Corticotropin-releasing factor-binding protein. The assay is described as follows: Dose Response confirmation of uHTS hits for small molecule antagonists of the CRF-binding protein and CRF-R2 receptor complex. The class given is functional. The following applies: read-out: IC50_Mean.
Assay [9] has as its target T3, Cytochrome P450 3A4 (Homo sapiens, UniProt P08684). As to conditions: Potency.
A short description of assay [10]: cytotoxicity in KRAS-transformed pancreatic duct cells, primary screen, cell-based, fluorescence, HTS (AID 431).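 Further: cell line used: HPDE-C7K.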 The class given is functional. The following applies: Homo sapiens.
Assay [11] addresses FAD-linked sulfhydryl oxidase ALR (Homo sapiens, UniProt P55789). The assay is described as follows: inhibitors of human ALR sulfhydryl oxidase, dose response, biochemical, H2O2 detection, luminescence, cherry-pick (AID 493248).
Assay [12] is described as follows: cytotoxicity in HPDE-C7 cells, cell-based, fluorescence, HTS (AID 430). The following applies: Homo sapiens. The class given is functional.
For assay [13], the target named is Mitogen-activated protein kinase 10 (Homo sapiens, UniProt P53779). Briefly: Dose response biochemical screening assay for inhibitors of c-Jun N-Terminal Kinase 3 (JNK3). [Related pubchem assays: 746 ].
Assay [14] addresses Heat shock protein HSP 90-alpha (Homo sapiens, UniProt P07900). Type of assay: functional, organism-based.
Assay [15] concerns HeLa. The assay is described as follows: HeLa cell cytotoxicity, dose response, cytotoxicity control, 24 h, cherry-picked samples (AID 504726).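 Further: potency for cytotoxicity as loss of luminescence signal.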 The class given is functional, cell-based. The following applies: Homo sapiens.
Assay [16] addresses T4, Alkaline phosphatase, tissue-nonspecific isozyme (Homo sapiens, UniProt P05186).
T4 sequence (P05186 whole entry): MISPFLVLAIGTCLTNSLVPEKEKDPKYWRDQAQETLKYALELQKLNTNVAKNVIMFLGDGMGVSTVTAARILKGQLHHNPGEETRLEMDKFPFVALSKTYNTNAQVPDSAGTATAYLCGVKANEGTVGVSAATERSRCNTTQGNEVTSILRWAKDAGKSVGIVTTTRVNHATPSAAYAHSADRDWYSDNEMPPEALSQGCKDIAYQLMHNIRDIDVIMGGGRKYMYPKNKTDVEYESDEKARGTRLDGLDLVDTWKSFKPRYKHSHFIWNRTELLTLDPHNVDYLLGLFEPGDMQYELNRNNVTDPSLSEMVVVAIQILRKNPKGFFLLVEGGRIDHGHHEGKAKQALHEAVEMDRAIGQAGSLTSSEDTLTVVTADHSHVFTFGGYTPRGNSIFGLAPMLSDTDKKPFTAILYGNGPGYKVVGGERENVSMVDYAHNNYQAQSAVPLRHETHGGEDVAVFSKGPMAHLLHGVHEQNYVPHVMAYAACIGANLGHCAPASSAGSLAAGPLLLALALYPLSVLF

The target in assay [17] is Voltage-gated N-type calcium channel alpha-1B subunit/Amyloid beta A4 precursor protein-binding family A member 1 (Homo sapiens, UniProt Q00975+Q02410). The assay is described as follows: disruptors of Mint-PDZ/N-type channel peptide interaction – biochemical, HTRF, set 2, SAR follow-up (AID 434980). Type of assay: functional.
The nature of assay [18]: cells. Type of assay: functional, cell-based.
The nature of assay [19]: M. tuberculosis H37Rv growth inhibitors, H37Rv strain (AID 1626). Type of assay: functional.
The nature of assay [20]: cells. The class given is functional, cell-based. This is another data set of the same source.
The target of assay [21] is Cytochrome P450 2D6 (Homo sapiens, UniProt P10635).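 Further: CYP2D6 member of a cytochrome P450 panel assay.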
For assay [22], the target named is T3, Cytochrome P450 3A4.

T3 sequence (P08684 whole entry): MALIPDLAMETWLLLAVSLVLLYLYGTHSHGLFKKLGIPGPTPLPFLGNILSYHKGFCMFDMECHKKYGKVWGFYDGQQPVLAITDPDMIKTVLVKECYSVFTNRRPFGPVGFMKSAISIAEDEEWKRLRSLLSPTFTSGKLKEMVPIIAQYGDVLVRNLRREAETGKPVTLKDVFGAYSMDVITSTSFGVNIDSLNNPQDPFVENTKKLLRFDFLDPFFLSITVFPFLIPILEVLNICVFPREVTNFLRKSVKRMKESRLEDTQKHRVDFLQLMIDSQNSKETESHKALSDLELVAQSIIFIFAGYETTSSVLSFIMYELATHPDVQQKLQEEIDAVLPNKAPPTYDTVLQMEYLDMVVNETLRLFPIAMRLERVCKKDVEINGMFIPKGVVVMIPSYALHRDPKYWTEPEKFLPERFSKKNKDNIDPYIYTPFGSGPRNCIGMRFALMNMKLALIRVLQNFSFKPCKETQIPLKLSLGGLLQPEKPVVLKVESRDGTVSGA
Chain of Voltage-gated N-type calcium channel alpha-1B subunit/Amyloid beta A4 precursor protein-binding family A member 1 (Q00975 whole entry): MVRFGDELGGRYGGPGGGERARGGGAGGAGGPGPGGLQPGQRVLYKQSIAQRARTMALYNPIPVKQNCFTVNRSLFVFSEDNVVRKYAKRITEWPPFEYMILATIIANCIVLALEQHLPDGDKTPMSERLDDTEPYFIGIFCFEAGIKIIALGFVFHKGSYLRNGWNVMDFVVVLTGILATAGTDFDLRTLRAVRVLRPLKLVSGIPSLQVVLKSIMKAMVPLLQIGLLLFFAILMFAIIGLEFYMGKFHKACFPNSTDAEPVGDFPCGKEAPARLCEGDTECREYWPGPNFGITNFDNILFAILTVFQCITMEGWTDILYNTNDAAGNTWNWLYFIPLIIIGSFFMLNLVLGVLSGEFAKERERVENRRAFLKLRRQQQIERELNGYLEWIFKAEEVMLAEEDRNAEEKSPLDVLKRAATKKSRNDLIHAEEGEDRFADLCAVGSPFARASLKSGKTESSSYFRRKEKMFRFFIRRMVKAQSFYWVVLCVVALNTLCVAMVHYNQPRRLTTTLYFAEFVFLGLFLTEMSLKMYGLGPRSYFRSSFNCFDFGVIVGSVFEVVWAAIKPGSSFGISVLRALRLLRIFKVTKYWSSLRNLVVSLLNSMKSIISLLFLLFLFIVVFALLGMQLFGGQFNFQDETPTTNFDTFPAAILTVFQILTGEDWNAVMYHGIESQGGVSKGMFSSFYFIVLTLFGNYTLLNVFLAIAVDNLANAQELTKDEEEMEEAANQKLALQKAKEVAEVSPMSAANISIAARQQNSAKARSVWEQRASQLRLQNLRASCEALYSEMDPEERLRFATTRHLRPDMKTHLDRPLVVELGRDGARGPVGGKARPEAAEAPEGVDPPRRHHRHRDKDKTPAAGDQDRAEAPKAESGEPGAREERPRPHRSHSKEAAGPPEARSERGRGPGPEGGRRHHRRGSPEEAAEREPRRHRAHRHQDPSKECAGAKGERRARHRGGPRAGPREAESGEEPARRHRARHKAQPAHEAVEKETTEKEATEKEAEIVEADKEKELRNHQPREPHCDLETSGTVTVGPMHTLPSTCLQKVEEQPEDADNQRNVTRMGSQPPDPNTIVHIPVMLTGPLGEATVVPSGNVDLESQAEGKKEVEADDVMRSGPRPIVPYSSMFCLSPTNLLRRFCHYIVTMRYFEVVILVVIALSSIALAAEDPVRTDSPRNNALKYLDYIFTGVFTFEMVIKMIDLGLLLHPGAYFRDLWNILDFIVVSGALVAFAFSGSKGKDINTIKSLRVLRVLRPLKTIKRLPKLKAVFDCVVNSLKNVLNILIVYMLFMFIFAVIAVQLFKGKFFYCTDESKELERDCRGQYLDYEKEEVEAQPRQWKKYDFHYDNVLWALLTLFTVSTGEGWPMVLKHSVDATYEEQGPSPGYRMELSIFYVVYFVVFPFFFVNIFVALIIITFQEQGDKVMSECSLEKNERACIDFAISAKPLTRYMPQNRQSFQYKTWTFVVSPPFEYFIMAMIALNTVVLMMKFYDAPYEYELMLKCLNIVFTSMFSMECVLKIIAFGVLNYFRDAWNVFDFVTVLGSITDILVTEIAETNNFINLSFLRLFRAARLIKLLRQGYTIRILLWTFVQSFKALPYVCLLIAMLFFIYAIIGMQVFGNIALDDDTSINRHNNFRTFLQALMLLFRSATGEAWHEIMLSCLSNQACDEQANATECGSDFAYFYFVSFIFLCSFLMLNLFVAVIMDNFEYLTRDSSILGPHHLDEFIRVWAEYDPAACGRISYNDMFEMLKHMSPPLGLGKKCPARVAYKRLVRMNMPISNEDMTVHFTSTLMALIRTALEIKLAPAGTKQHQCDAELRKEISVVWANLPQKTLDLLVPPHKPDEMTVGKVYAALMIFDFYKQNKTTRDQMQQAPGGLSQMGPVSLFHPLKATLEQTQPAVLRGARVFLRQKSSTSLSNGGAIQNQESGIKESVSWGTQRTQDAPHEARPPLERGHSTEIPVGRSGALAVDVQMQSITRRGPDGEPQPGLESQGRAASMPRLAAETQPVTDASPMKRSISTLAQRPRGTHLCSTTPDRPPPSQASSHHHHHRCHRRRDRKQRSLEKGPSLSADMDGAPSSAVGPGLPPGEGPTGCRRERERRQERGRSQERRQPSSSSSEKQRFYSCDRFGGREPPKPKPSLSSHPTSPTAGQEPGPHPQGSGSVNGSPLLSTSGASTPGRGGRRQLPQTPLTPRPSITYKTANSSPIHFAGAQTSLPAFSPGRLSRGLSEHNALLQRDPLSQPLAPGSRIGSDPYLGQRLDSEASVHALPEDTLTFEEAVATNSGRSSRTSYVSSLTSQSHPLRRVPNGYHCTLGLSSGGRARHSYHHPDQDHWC
Chain of Voltage-gated N-type calcium channel alpha-1B subunit/Amyloid beta A4 precursor protein-binding family A member 1 (Q02410 whole entry): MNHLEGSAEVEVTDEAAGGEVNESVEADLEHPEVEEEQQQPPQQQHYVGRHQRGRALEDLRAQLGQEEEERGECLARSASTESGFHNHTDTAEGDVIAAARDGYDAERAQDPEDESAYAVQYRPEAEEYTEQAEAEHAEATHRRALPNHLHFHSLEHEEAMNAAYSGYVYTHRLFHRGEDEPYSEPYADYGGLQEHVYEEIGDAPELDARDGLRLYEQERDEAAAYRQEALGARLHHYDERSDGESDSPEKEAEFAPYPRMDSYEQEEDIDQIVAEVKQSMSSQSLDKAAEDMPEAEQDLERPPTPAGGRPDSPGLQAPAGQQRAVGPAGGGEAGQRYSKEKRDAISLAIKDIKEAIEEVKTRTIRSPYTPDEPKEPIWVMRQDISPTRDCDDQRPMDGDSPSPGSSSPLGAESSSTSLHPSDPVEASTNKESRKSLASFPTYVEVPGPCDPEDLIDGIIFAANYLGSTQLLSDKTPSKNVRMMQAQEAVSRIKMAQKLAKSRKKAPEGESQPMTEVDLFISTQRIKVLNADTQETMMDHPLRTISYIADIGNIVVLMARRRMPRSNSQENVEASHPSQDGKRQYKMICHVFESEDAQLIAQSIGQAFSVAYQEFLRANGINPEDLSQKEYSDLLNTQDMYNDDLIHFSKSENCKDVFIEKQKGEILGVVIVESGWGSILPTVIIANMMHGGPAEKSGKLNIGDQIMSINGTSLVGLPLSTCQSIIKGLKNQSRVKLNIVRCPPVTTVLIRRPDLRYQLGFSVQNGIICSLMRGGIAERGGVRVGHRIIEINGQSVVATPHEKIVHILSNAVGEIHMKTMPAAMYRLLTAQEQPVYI
Chain of Cytochrome P450 2D6 (P10635 whole entry): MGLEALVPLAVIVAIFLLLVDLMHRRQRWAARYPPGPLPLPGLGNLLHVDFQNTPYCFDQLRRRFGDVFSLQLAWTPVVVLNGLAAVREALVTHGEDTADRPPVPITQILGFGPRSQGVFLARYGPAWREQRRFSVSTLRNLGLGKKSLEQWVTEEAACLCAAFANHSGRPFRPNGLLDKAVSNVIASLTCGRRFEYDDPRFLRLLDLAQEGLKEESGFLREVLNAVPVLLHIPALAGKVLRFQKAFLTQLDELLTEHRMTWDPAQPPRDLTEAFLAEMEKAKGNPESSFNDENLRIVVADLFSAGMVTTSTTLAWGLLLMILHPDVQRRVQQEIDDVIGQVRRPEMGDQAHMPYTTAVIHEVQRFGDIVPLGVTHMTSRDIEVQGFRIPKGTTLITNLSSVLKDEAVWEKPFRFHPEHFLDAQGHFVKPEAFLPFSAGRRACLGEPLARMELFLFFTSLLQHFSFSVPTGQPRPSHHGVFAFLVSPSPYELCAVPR
Chain of Neurotensin receptor type 1 (P30989 whole entry): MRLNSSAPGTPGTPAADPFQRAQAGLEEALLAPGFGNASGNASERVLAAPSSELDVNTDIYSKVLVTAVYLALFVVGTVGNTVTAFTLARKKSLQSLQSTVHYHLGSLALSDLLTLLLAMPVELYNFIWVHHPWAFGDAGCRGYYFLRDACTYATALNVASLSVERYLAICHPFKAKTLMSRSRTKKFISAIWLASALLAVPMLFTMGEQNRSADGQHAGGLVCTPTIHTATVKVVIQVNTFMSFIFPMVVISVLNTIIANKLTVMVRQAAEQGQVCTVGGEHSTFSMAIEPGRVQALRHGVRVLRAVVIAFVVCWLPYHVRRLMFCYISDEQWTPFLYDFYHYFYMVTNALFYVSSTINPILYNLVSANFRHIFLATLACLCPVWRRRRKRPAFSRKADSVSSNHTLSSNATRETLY
Chain of Mitogen-activated protein kinase 10 (P53779 whole entry): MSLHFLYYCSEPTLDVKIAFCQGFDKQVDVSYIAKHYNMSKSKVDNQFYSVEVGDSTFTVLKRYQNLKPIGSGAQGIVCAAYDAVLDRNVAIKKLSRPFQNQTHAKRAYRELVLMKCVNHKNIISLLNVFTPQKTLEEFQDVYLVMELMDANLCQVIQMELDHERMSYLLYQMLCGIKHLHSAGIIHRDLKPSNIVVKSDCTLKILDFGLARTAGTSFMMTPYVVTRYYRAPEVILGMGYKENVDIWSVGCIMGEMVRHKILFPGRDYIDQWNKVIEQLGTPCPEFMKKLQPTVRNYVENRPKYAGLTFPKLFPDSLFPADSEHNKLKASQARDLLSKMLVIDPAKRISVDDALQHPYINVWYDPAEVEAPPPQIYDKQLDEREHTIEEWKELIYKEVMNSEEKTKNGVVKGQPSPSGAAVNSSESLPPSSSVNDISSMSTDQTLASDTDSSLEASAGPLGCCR

With `Cc1cc(N2CCOCC2)ccc1/C=C\[N+](=O)[O-]`, the IC50 is > 67.5 µM (inactive) in assay [1] and 4.34 µM (active) in [2]. Moreover, in [3], the AC50 (usually the concentration at which the activity in the assay is half-maximal) is 22.5 µM (active). For the same compound, in [4], the EC50 is 22.4 µM (inactive).
Regarding `COc1ccccc1-c1ccc2c(c1)[C@@H]1[C@@H](CCN1C(=O)C1CCC1)[C@H](CO)N2`, the AC50 in [5] was 2.92 µM (active).
With `COC(=O)C1C(c2ccccc2)C(C(=O)OCc2ccco2)C1c1ccccc1` (stereo not drawn), the EC50 in assay [6] is > 53 µM (inactive). In addition, the CC50 (as a rule, the concentration at which the toxic effect on the cells reaches its halfway point) in assay [7] is 30.1 µM (active). For the same compound, the IC50 in [8] was > 47.1 µM (inactive).
As for `COC(=O)c1ccc(C23CC4(C2)[C@H](CN(C)[C@@H]4c2ccccc2)C3c2ccc(Cl)nc2)cc1` (stereo partly drawn), the AC50 in assay [9] was 20 µM (inconclusive).
For `Clc1ccc2[nH]c3c(c2c1)CCc1c[nH]nc1-3`, the results for the EC50 in assay [10] and in assay [12] were 18.1 µM (active) and 15 µM (active), respectively. For the same compound, the AC50 in assay [11] is 0.129 µM (active); in assay [14] it was 7.8 µM (active). Further, the IC50 in assay [13] was 2.16 µM (active).
Regarding `CN(C)c1ccc(/C=C/C(=O)c2ccc(O)cc2)cc1[N+](=O)[O-]`, the concentration at half-maximal activity (AC50) in [15] was 51.7 µM (active).
As for `Cc1ccc(/C=N/Nc2cccc3cccnc23)c(O)c1`, the EC50 in assay [16] is on record as > 100 µM (not active).
On to `COc1ccccc1N1CCN(C(=O)c2cc(-c3ccco3)nc3ccccc23)CC1`, for which, in [17], the IC50 is > 56.8 µM (inactive).
With `COc1ccc(/N=C2/C(=O)N3CCCc4cccc2c43)cc1`, the EC50 in [18] and in assay [20] was > 350 µM (not active) each time. In [19], the IC50 is > 100 µM (active).
On to `Cc1cc([N+](=O)[O-])nn1CC(=O)NN=C(S)Nc1ccc(F)cc1`, for which the results for the AC50 in assay [21] and in assay [22] were 0.00562 µM (inconclusive) and 22.4 µM (inconclusive), respectively. Also, the EC50 in assay [16] was 55.5 µM (not active).
